Assay results taken from ChEMBL document CHEMBL1154952, “N1-Alkyl pyrimidinediones as non-nucleoside inhibitors of HIV-1 reverse transcriptase” (Bioorg Med Chem Lett, 2010).
≈ marks a conversion by molar mass, not a printed value.

How the values were obtained:
[1] = system: Human immunodeficiency virus 1; assay: Antiviral activity against NNRTI-resistant HIV1 harboring reverse transcriptase K103N mutant infected in human MT2 cells; type: functional, organism-based; settings: Human immunodeficiency virus 1, MT2
[2] = system: Human immunodeficiency virus 1; assay: Antiviral activity against wild type HIV1 infected in human MT2 cells; type: functional, organism-based; settings: Human immunodeficiency virus 1, MT2
[3] = system: Human immunodeficiency virus 1; assay: Antiviral activity against HIV1 harboring reverse transcriptase Y181C mutant infected in human MT2 cells; type: functional, organism-based; settings: Human immunodeficiency virus 1, MT2
Albumin = Albumin (Homo sapiens, UniProt P02768); assay: Binding affinity to human serum albumin; type: ADME; settings: read-out: PB (converted)
Chain of Albumin (P02768 whole entry): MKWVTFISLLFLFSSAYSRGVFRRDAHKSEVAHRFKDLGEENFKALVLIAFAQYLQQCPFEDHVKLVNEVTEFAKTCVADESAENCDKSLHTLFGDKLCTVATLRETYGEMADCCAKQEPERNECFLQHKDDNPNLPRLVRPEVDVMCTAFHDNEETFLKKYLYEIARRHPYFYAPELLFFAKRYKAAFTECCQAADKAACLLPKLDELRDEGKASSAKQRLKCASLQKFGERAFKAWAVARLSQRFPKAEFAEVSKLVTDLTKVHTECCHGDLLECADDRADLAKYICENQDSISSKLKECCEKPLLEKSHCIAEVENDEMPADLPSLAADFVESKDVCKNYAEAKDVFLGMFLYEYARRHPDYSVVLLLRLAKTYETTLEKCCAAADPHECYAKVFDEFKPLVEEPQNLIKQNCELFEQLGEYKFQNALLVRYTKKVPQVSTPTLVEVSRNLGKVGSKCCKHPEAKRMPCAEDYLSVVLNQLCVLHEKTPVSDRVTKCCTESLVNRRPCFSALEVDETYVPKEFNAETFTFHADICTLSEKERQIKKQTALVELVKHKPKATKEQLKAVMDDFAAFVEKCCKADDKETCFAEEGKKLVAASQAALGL

[4] = Volume of distribution at steady state in Beagle dog at 0.5 mg/kg, iv or. 5 mg/kg, po; type: ADME, organism-based, Canis lupus familiaris; settings: in vivo, read-out: Vdss
[5] = Half life in Beagle dog at 0.5 mg/kg, iv or. 5 mg/kg, po; type: ADME, organism-based, Canis lupus familiaris; settings: in vivo
[6] = Oral bioavailability in Beagle dog at 5 mg/kg, po dosed as suspension; type: ADME, organism-based, Canis lupus familiaris; settings: in vivo
[7] = AUC ((0 to infinity)) in Beagle dog at 5 mg/kg, po dosed as Tablet formulation; type: ADME, organism-based, Canis lupus familiaris; parameters: time infinity, dose 5 mg/kg, route oral; settings: plasma
[8] = Oral bioavailability in Beagle dog at 5 mg/kg, po dosed as Tablet formulation; type: ADME, organism-based, Canis lupus familiaris; settings: in vivo
[9] = AUC ((0 to infinity)) in Beagle dog at 5 mg/kg, po dosed as suspension; type: ADME, organism-based, Canis lupus familiaris; parameters: time infinity, dose 5 mg/kg, route oral; settings: plasma
[10] = Aqueous solubility in 50 mM phosphate buffer; type: physicochemical
Canis familiaris = assay: Toxicity in Beagle dog assessed as emesis at greater than 5 mg/kg, po dosed as suspension; type: organism-based, Canis lupus familiaris; parameters: dose 5 mg/kg, route oral; settings: in vivo
[11] = Oral bioavailability in Beagle dog at 0.5 mg/kg; type: ADME, organism-based, Canis lupus familiaris; settings: in vivo
[12] = system: Human immunodeficiency virus 1; assay: Ratio of EC50 for wild type HIV1 in absence of 50% human serum to EC50 for wild type HIV1 in presence of 50% human serum; type: functional
[13] = system: Human immunodeficiency virus 1; assay: Ratio of EC50 for HIV1 harboring reverse transcriptase K103N mutant in absence of 50% human serum to EC50 for HIV1 harboring reverse transcriptase K103N mutant in presence of 50% human serum; type: functional
[14] = system: Human immunodeficiency virus 1; assay: Ratio of EC50 for HIV1 harboring reverse transcriptase Y181C mutant in absence of 50% human serum to EC50 for HIV1 harboring reverse transcriptase Y181C mutant in presence of 50% human serum; type: functional
[15] = Oral bioavailability in Beagle dog at 2 mg/kg; type: ADME, organism-based, Canis lupus familiaris; settings: in vivo
[16] = Oral bioavailability in Beagle dog at 4 mg/kg; type: ADME, organism-based, Canis lupus familiaris; settings: in vivo

Structure (SMILES)	EC50 [1]	EC50 [2]	EC50 [3]	fraction unbound (Albumin)	Vd [4]	half-life [5]	further results
CCn1c(C(F)c2cc(C)cc(C#N)c2)c(C(C)C)c(=O)[nH]c1=O (stereo not drawn)	> 24 nM	21 nM	8.1 nM	0.02	–	–	–
CCc1c(C(=O)c2cc(C)cc(C#N)c2)n(CC)c(=O)[nH]c1=O	> 43 nM	11.7 nM	> 43 nM	0.149	1.53 L/kg	1.42 h	–
CCn1c(Oc2cc(C)cc(C#N)c2)c(C(C)C)c(=O)[nH]c1=O	> 14 nM	35 nM	2.6 nM	0.04	–	–	–
CCn1c(C(=O)c2cc(C)cc(C#N)c2)c(C(C)C)c(=O)n(COC(C)=O)c1=O	–	–	–	–	–	–	bioavailability [6]: 48.9%; AUC(0-inf) [7]: 8.78 µM·h; bioavailability [8]: 35.3%; AUC(0-inf) [9]: 14.7 µM·h; solubility [10]: 0.0022 mg/mL (≈ 5.54 µM)
CCn1c(C(=O)c2cc(C)cc(C#N)c2)c(C(C)C)c(=O)n(COC(=O)OC(C)C)c1=O	–	–	–	–	–	–	bioavailability [6]: 108%; AUC(0-inf) [7]: 4.54 µM·h; bioavailability [8]: 24%; AUC(0-inf) [9]: 54 µM·h; solubility [10]: < 0.001 mg/mL
CCn1c(C(=O)c2cc(C)cc(C#N)c2)c(C(C)C)c(=O)n(COP(=O)(O)O)c1=O	–	–	–	–	–	–	Activity (Canis familiaris): Toxic; bioavailability [6]: 75.2%; AUC(0-inf) [9]: 18.8 µM·h; solubility [10]: 12 mg/mL (≈ 27600 µM)
Cc1cc(C#N)cc(C(=O)c2[nH]c(=O)[nH]c(=O)c2C(C)C)c1	> 1 nM	> 500 nM	> 1 nM	–	0.45 L/kg	6.4 h	–
Cc1cc(C#N)cc(C(=O)c2c(C(C)C)c(=O)[nH]c(=O)n2C)c1	> 2.7 nM	187 nM	> 2.7 nM	0.141	–	–	–
CCn1c(C(=O)c2cc(C)cc(C#N)c2)c(C(C)C)c(=O)[nH]c1=O	6.4 nM	6.1 nM	9.6 nM	0.166	2.25 L/kg	6.5 h	bioavailability [11]: 69%; bioavailability [6]: 35.8%; Ratio EC50 [12]: 2.7; AUC(0-inf) [7]: 13.5 µM·h; bioavailability [8]: 45.1%; Ratio EC50 [13]: 2.7; Ratio EC50 [14]: 2.7; AUC(0-inf) [9]: 13.1 µM·h; solubility [10]: 0.011 mg/mL (≈ 33.8 µM)
CCCn1c(C(=O)c2cc(C)cc(C#N)c2)c(C(C)C)c(=O)[nH]c1=O	> 36 nM	3.6 nM	> 58 nM	0.009	1.4 L/kg	1.67 h	–
CCCCn1c(C(=O)c2cc(C)cc(C#N)c2)c(C(C)C)c(=O)[nH]c1=O	10 nM	3 nM	12 nM	0.001	2.23 L/kg	6.1 h	bioavailability [15]: 28%
CCn1c(C(=O)c2cc(C)cc(C#N)c2)c(C(C)(C)C)c(=O)[nH]c1=O	2.7 nM	10 nM	> 50 nM	0.007	–	–	–
CCn1c(C(F)(F)c2cc(C)cc(C#N)c2)c(C(C)C)c(=O)[nH]c1=O	9 nM	4.2 nM	4.3 nM	0.013	–	–	–
O=C1Nc2ccc(Cl)cc2[C@@](C#CC2CC2)(C(F)(F)F)O1 [EFAVIRENZ]	–	–	–	0.001	–	–	–
Cc1cc(C#N)cc(C)c1Oc1nc(Nc2ccc(C#N)cc2)nc(N)c1Br [ETRAVIRINE]	–	–	–	0.002	1.6 L/kg	8.87 h	bioavailability [16]: 13%
